Measurements published in patent publication US8697747B2, “Enhancing coagulation or reducing fibrinolysis” (THe UAB Research Foundation, priority 2009, dated 2014).

Assays:
Assay type in all cases: biochemical, human
[1] = test system: α2-antiplasmin deficient plasma; test: CLSM thrombelastography with tPA, α2-antiplasmin deficient plasma
Protocol: (§1) Pooled normal plasma (George King Bio-Medical, Overland Park, Kans.) anticoagulated with sodium citrate was utilized for experimentation. […] Factor XIII (FXIII) deficient plasma anticoagulated with sodium citrate was also obtained from the same vendor.
(§2) Plasma Sample Composition. The final volume for all subsequently described plasma sample mixtures was 359.4 μL. Sample composition consisted of 316 μL of plasma; 10 μL of tissue factor (0.1% final concentration in 0.9% NaCl; Diagnostica Stago, Asnieres, France), 3.6 μL of dimethyl sulfoxide (DMSO) or DMSO with CORM-2 (Sigma-Aldrich, St. Louis, Mo.) or DMSO with inactivated CORM-2 (iCORM-2), 10 μL of tissue-type plasminogen activator (tPA, 580 U/μg, Genentech, Inc., San Francisco, Calif.) diluted with 10 mM potassium phosphate buffer (pH 7.4) for a final activity of 100 IU/mL, and 20 μL of 200 mM CaCl2. […] This concentration of CORM-2 was chosen because the concentration of CO released would be expected to be in the mid to lower ranges used in previously reported ex vivo, in vitro, and cell-based experiments (Motterlini et al. 2002; Megias et al. 2007; Chlopicki et al. 2006; Dong et al. 2008). […] (Motterlini et al. 2005). While CORM-2 decays slowly in DMSO, DMSO was added to the dry compound just prior to placement into the plasma mixture. The specific series of experiments are subsequently presented.
(§3) Assessment of the Effects of CORM-2 on CLSM Parameters in FXIII, PAI-1, TAFI and α2-antiplasmin Deficient Plasmas. These experiments were performed to elucidate the roles played by antifibrinolytic enzymes during CORM-2 mediated modulation of fibrinolysis. Samples of the various deficient plasmas were exposed to 0 or 100 μM of CORM-2 (n=8 per condition). Samples underwent CLSM analyses as subsequently described.
(§4) Clot Lifespan Model Analyses. As described in Example 1, plasma sample mixtures were placed in a disposable cup in a computer-controlled THROMBELASTOGRAPH® hemostasis system (Model 5000, Haemoscope Corp., Niles, Ill.), with addition of CaCl2 as the last step to initiate clotting. Data were collected until clot lysis time occurred. […] As this model involves complete fibrinolysis, TTG is equivalent to ACL, so ACL was not presented as it provides no additional information.
(§5) Statistical Analyses. Data are presented as median (1st, 3rd quartiles). […] Nonlinear and linear analyses and curve fitting of the various CORM-2 concentrations effects on CLSM variables were performed with commercially available software (SigmaPlot 11.0, Systat Software, Inc., San Jose, Calif.). Analyses of the effects of CORM-2 and iCORM-2 on CLSM variables in normal plasma were conducted with Kruskal-Wallis one way analysis of variance on ranks, whereas Mann-Whitney rank sum tests were used to assess the effects of CORM-2 on CLSM variables in the various immunodepleted/congenitally deficient plasma types (SigmaStat 3.1, Systat Software, Inc., San Jose, Calif.). Graphical representation of the data was generated with commercially available software (SigmaPlot 11.0, Systat Software, Inc., San Jose, Calif.; CorelDRAW 12.0, Corel Corporation, Ottawa, Ontario, Canada; Origin 7.5, OriginLab Corp., Northampton, Mass.). A P value of <0.05 was considered significant.

FXIII deficient plasma = test: CLSM thrombelastography with tPA, FXIII deficient plasma; details: 100 μM CORM-2, tPA 100 IU/mL, median, n=8
Protocol: as §1, §2, §3, §4, §5

[2] = test system: factor VII deficient plasma; test: Thrombelastography, factor VII deficient plasma; details: 100 mmol CORM-2 vs control; FVII deficient plasma, 4 individuals
Protocol: Plasma deficient (<1% normal activity) in factor VIII (FVIII; 11 individuals), factor IX (FIX; 5 individuals), or factor VII (FVII; 4 individuals) was obtained from anonymous donors (George King Bio-Medical, Overland Park, Kans.) and was anticoagulated with sodium citrate. The final volume for all subsequently described plasma sample mixtures was […]. Sample composition consisted of […] of plasma, […] of tissue factor (0.1% final concentration in 0.9% NaCl; Diagnostica Stago, Asnieres, France), 3.6 mL of dimethyl sulfoxide (DMSO) or DMSO with CORM-2 ([…]; Sigma-Aldrich, St. Louis, Mo.), and 20 mL of […] CaCl2. […] (Motterlini et al. 2005). While CORM-2 decays slowly in DMSO, DMSO was added to the dry compound just prior to placement into the plasma mixture.
Plasma sample mixtures were placed in a disposable cup in a computer-controlled THROMBELASTOGRAPH® hemostasis system (Model 5000; Haemoscope Corp., Niles, Ill.), with addition of CaCl2 as the last step to initiate clotting. Data were collected until clot strength stabilized (maximum amplitude).
Statistical analyses. […] A paired student's t-test was used to analyze the effects of CORM-2 exposure in FVIII deficient individuals. The results of the FIX and FVII deficient groups were presented but not statistically analyzed secondary to the small number of individuals in each cohort. […] Statistical analyses and graphical representation of the data were generated with commercially available software (SigmaPlot 11.0; Systat Software Inc., San Jose, Calif.; CorelDRAW 12.0; Corel Corp., Ottawa, Ontario, Canada). A P value of less than 0.05 was considered significant.

[3] = 100 μM CORM-2, tPA 100 IU/mL, median, n=8

In the case of `[C-]#[O+].[C-]#[O+].[C-]#[O+].[C-]#[O+].[C-]#[O+].[C-]#[O+].[Cl][Ru][Cl].[Cl][Ru][Cl]` [CORM-2, tricarbonyldichlororuthenium (II) dimer], the “CGT (clot growth time)” value [1, 3] is reported as 188 s, the “CLS (clot lifespan)” value [1, 3] is reported as 378 s and the “CLT (clot lysis time)” value [1, 3] is reported as 190 s. The “MRL (maximum rate of lysis)” value [1, 3] was −10.0 -dynes/cm^2/sec, the “MRTG (maximum rate of thrombus generation)” value [1, 3] was 10.1 dynes/cm^2/sec and the “TMRL (time to maximum rate of lysis)” value [1, 3] was 68 s. For the same compound, the “TMRTG (time to maximum rate of thrombus generation)” value [1, 3] was 160 s, the “TTG (total thrombus generation)” value [1, 3] was 231 dynes/cm^2 and the “increase of CLS” value ([1]; 100 μM CORM-2 vs unexposed) was 14%. For the same compound, the “increase of the velocity of clot formation” value ([1]; 100 μM CORM-2 vs unexposed) was 35%, the “prolongation of CLT” value ([1]; 100 μM CORM-2 vs unexposed) was 23% and the “CGT (clot growth time)” value (FXIII deficient plasma) was 820 s. For the same compound, the “CLS (clot lifespan)” value (FXIII deficient plasma) was 2258 s, the “CLT (clot lysis time)” value (FXIII deficient plasma) was 1460 s and the “MRL (maximum rate of lysis)” value (FXIII deficient plasma) was −1.0 -dynes/cm^2/sec. For the same compound, the “MRTG (maximum rate of thrombus generation)” value (FXIII deficient plasma) was 5.8 dynes/cm^2/sec, the “TMRL (time to maximum rate of lysis)” value (FXIII deficient plasma) was 855 s and the “TMRTG (time to maximum rate of thrombus generation)” value (FXIII deficient plasma) was 195 s. For the same compound, the “TTG (total thrombus generation)” value (FXIII deficient plasma) was 160 dynes/cm^2, the “effect on MRTG” value [2] was “an increase in MRTG and TTG in all FVII deficient plasma donors” and the “effect on TMRTG” value [2] was “an increase in TMRTG in all individuals tested”. The “effect on TTG” value [2] was “an increase in MRTG and TTG in all FVII deficient plasma donors”.
